Reference: publication PMC9485191, “The ERK5/NF-κB signaling pathway targets endometrial cancer proliferation and survival” (Cellular and Molecular Life Sciences, 2022)

Tests used:
ERK5 [1] = biological target: T1, ERK5 (Homo sapiens, UniProt Q13164); assay: in vitro (cell-free) kinase assay at […] ATP ([…] at […] ATP); supported by inhibition of EGF-induced ERK5 phosphorylation in cells; format: biochemical
T1 construct: gene MAPK7

AN3CA (endometrial) = assay: cells; parameters: MTT reduction cytotoxicity assay in human tumour cell lines; details: Homo sapiens, AN3-CA; 48 h, MTT
Experimental: (§1) Cell viability was determined by MTT (3-(4,5-dimethyl-2-thiazolyl)-2,5-diphenyl-2H-tetrazolium Blue, Sigma) reduction assay. For clonogenic assays, cells were seeded in 6-well plates, treated for 14 days and stained with 0.5% crystal violet solution. Colonies with > 40 cells were counted. Cell proliferation was measured by cell counting assay, using a TC10TM automated cell counter (Bio-Rad, Hercules, CA, USA) using Trypan Blue. Cell viability was also determined using a LIVE/DEAD viability/cytotoxicity kit assay (ThermoFisher), as reported before. The above results prompted us to investigate the anticancer activity of ERK5 inhibition in EC. To do so, we used the endometrioid cancer cell lines Ishikawa and AN3CA cells (that carry PTEN deficiency and P53 mutation), as well as the more clinically aggressive non-endometrioid serous adenocarcinoma cell line ARK1 (PI3KCA mutation). In cell viability assays, JWG-071 induced cytotoxicity in the three EC cell lines tested, with IC50 values ranging 2–3 µM. In fact, JWG-071 induced cytotoxicity in a wide panel of cancer cells, including prostate, cervical, neuroblastoma, and glioblastoma cancers (Supplementary Fig. 4).

ARK1 (endometrial) = assay: cells; parameters: MTT reduction cytotoxicity assay in human tumour cell lines; details: 48 h, MTT
Experimental: as §1

C4-2 (prostate) = assay: cells; parameters: MTT reduction cytotoxicity assay in human tumour cell lines; details: 48 h, MTT
Experimental: as §1

Hela (cervical) = assay: cells; parameters: MTT reduction cytotoxicity assay in human tumour cell lines; details: Homo sapiens, HeLa; 48 h, MTT
Experimental: as §1

IMR-32 (neuroblastoma) = assay: cells; parameters: MTT reduction cytotoxicity assay in human tumour cell lines; details: Homo sapiens, IMR-32; 48 h, MTT
Experimental: as §1

Ishikawa (endometrial) = assay: cells; parameters: MTT reduction cytotoxicity assay in human tumour cell lines; details: Homo sapiens, Ishikawa; 48 h, MTT
Experimental: as §1

LN-18 (glioblastoma) = assay: cells; parameters: MTT reduction cytotoxicity assay in human tumour cell lines; details: Homo sapiens, LN-18; 48 h, MTT
Experimental: as §1

SH-SY5Y (neuroblastoma) = assay: cells; parameters: MTT reduction cytotoxicity assay in human tumour cell lines; details: Homo sapiens, SH-SY5Y; 48 h, MTT
Experimental: as §1

ERK5 [2] = biological target: T1, ERK5; assay: biochemical; parameters: radiometric 32P-ATP kinase assay, active ERK5, PIMtide substrate, p81 paper, Cherenkov counting; details: 200 uM ATP
From the text: Gene silencing Validated siRNAs targeting NEMO were from Sigma (ref. EHU032271) and ThermoFisher (ref. AM51331). Scrambled (control) siRNA was from ThermoFisher. siRNAs were transfected into cells using Lipofectamine-2000, following the manufacturer’s recommended protocol. The vectors encoding two different shRNAs targeting ERK5 were from Sigma (TRCN0000010262/pLKO.1; TRCN0000010275/pLKO.1). Lentiviral production is detailed at Supplementary Materials and Methods. In vitro ERK5 kinase activity assay A 40 μL reaction mixture was prepared containing 200 ng of pure active ERK5 (1) and the indicated amount of inhibitor in 50 mM Tris-HCl, pH 7.5, 0.1 mM EGTA, 1 mM 2-mercaptoethanol. […] Assays were carried out for 20 min at 30°C, terminated by applying the reaction mixture onto p81 paper, and the incorporated radioactivity measured by Cherenkov counting. Most of the ERK5 inhibitors developed so far, including JWG-071, are type I competitive inhibitors that target the ATP-binding site. […] Taking in account that the homeostatic levels of intracellular ATP range from 0.5 to 5 mM [31], it is very likely that ERK5 competitive inhibitors (such as JWG-071) should require µM concentrations to displace ATP from the active site in cells. […]

T1 sequence (Q13164 2-816): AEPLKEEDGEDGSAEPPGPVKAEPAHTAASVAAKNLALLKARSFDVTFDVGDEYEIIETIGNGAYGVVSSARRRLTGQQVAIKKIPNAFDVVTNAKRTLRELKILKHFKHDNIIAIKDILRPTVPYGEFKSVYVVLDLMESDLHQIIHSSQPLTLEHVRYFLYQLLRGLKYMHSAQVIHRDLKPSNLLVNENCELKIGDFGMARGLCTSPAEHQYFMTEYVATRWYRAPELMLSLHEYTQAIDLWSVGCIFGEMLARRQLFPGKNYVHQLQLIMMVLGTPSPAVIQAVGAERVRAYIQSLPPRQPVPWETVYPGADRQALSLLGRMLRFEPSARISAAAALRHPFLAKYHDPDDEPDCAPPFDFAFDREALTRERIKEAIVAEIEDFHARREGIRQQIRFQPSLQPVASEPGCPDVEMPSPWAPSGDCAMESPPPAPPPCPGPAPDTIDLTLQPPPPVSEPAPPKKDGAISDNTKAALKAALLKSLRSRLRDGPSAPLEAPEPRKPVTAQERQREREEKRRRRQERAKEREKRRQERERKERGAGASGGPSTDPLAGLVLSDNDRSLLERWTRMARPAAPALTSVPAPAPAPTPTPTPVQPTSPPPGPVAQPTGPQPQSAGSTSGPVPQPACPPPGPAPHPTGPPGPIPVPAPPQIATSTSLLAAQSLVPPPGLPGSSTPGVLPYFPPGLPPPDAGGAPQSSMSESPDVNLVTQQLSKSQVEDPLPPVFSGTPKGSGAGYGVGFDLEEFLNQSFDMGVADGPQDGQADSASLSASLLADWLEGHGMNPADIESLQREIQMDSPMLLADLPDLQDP

- IC50 (ERK5 [1]): ~90 nM
- IC50 (ERK5 [2]): 572 ± 51 nM
SMILES: CCC(C)N1c2ccccc2C(=O)N(C)c2cnc(Nc3ccc(C(=O)N4CCC(N5CCN(C)CC5)CC4)cc3OC)nc21 (stereo not shown) [JWG-071]
- IC50 (AN3CA (endometrial)): 3300 ± 600 nM
- IC50 (ARK1 (endometrial)): 2700 ± 200 nM
- IC50 (C4-2 (prostate)): 2200 ± 300 nM
- IC50 (Hela (cervical)): 2900 ± 700 nM
- IC50 (IMR-32 (neuroblastoma)): 1900 ± 300 nM
- IC50 (Ishikawa (endometrial)): 3200 ± 800 nM
- IC50 (LN-18 (glioblastoma)): 2900 ± 400 nM
- IC50 (SH-SY5Y (neuroblastoma)): 4200 ± 1400 nM
